Here are results for 14 compounds from US12588678B2, “Oxazoline compound, synthesis method therefor and application thereof” (NANKAI UNIVERSITY, priority 2019, dated 2026).

The test system of assay [1] is Tetranychus cinnabarinus mite larvae. Kind of assay: Larvicidal activity test, dipping method on bean seedling leaves. Format: in vivo. Particulars: for acaricidal activity compared with etoxazole: Tetranychus cinnabarinus eggs and larvae, etoxazole as reference; for mortality at 0.001 µg/mL / mortality at 0.01 µg/mL / mortality at 0.1 µg/mL / mortality at 0.5 µg/mL / mortality at 1 µg/mL / mortality at 10 µg/mL / mortality at 100 µg/mL / mortality at 200 µg/mL: Tetranychus cinnabarinus, 96 h, checked after 4 days; for mortality at 0.001 µg/mL: read-out: mortality of mite larvae (%), 0.001 mg/L; for mortality at 0.01 µg/mL: read-out: mortality of mite larvae (%), 0.01 mg/L; for mortality at 0.1 µg/mL: read-out: mortality of mite larvae (%), 0.1 mg/L; for mortality at 0.5 µg/mL: read-out: mortality of mite larvae (%), 0.5 mg/L; for mortality at 1 µg/mL: read-out: mortality of mite larvae (%), 1 mg/L; for mortality at 10 µg/mL: read-out: mortality of mite larvae (%), 10 mg/L; for mortality at 100 µg/mL: read-out: mortality of mite larvae (%), 100 mg/L; for mortality at 200 µg/mL: read-out: mortality of mite larvae (%), 200 mg/L. An excerpt: (§1) The assay examples are used to illustrate the acaricidal activity against Tetranychus cinnabarinus (mortality of mite larvae and mortality of mite eggs) of the compounds having the structure represented by formula (I), and the results are shown in tables 1 to 9, where mortality of mite larvae % =(number of dead mite larvae applied/total number of mite larvae applied)×100, and mortality of mite eggs %= (number of dead mite eggs applied/total number of mite eggs applied)×100.
Tetranychus cinnabarinus bred indoors on bean seedlings was used as a test subject by the dipping method. Move adult mites onto the newly grown complete bean seedling leaves with two leaves, cut off the bean seedlings, place the bean seedlings in a greenhouse with illumination at 25° C. for laying eggs for 24 hours, then remove adult mites and keep mite eggs. And continuously culture in the greenhouse for 5 days until mite eggs hatch into mite larvae (ensuring that the number of the mites on each tested leaf is not less than 60).
Completely immerse the bean seedling leaves containing the mite larvae into the sample solution to be detected with Tween at the prepared concentration for 5-6 seconds by using tweezers, slightly throw off residual liquid, put the bean seedling leaves back to the culture cup, continuously culture for 4 days and check the result. One of the plants was immersed in a solution containing no sample to be tested and the remaining additives were identical to the sample solution as a blank control. Each compound was replicated three times.

Assay [2] deals with Tetranychus cinnabarinus mite eggs. Kind of assay: Activity against mite eggs, dipping method on bean seedling leaves. The class given is in vivo. Particulars: for mortality at 0.001 µg/mL / mortality at 0.01 µg/mL / mortality at 0.1 µg/mL / mortality at 0.5 µg/mL / mortality at 1 µg/mL / mortality at 10 µg/mL / mortality at 100 µg/mL / mortality at 200 µg/mL: Tetranychus cinnabarinus, 96 h, checked after 4 days; for mortality at 0.001 µg/mL: read-out: mortality of mite eggs (%), 0.001 mg/L; for mortality at 0.01 µg/mL: read-out: mortality of mite eggs (%), 0.01 mg/L; for mortality at 0.1 µg/mL: read-out: mortality of mite eggs (%), 0.1 mg/L; for mortality at 0.5 µg/mL: read-out: mortality of mite eggs (%), 0.5 mg/L; for mortality at 1 µg/mL: read-out: mortality of mite eggs (%), 1 mg/L; for mortality at 10 µg/mL: read-out: mortality of mite eggs (%), 10 mg/L; for mortality at 100 µg/mL: read-out: mortality of mite eggs (%), 100 mg/L; for mortality at 200 µg/mL: read-out: mortality of mite eggs (%), 200 mg/L.
From the text: as §1
Tetranychus cinnabarinus bred indoors on bean seedlings was used as a test subject by the dipping method. Move female adult mites onto the newly grown complete bean seedling leaves with two leaves, cut off the bean seedlings, place the bean seedlings in a greenhouse with illumination at 25° C. for laying eggs for 24 hours, then remove adult mites and keep mite eggs. After continuously culturing in the greenhouse for one day, completely soak the bean seedling leaves containing the acarid eggs into the prepared sample solution to be tested for 5-6 seconds by using tweezers, slightly throw off residual liquid, put the bean seedling leaves back to the culture cup, continuously culture for 4 days and then check the result. One of the plants was immersed in a solution containing no sample to be tested and the remaining additives were identical to the sample solution as a blank control. Each compound was replicated three times.

Structures are written as SMILES.

Turning to `Fc1cccc(F)c1C1=NC(c2ccc(COCC(F)(F)F)cc2)CO1` (stereo not drawn) [Compound R2-5], in assay [1], the “acaricidal activity compared with etoxazole” value is on record as “higher acaricidal activity than etoxazole”, the mortality at 0.001 µg/mL is 37%, the mortality at 0.01 µg/mL is 65% and the mortality at 0.1 µg/mL was 90%. Besides, in assay [1], the mortality at 0.5 µg/mL came out at 90%, the mortality at 1 µg/mL was found to be 95%, the mortality at 10 µg/mL worked out at 100% and the mortality at 100 µg/mL was found to be 100%. Besides, the mortality at 200 µg/mL in assay [1] is 100%. Further, in assay [1] (relative to etoxazole), the “larvicidal activity, times that of etoxazole” value was found to be 27 times. In addition, in assay [2], the mortality at 0.001 µg/mL was determined as 47%, the mortality at 0.01 µg/mL is 70%, the mortality at 0.1 µg/mL was 90% and the mortality at 0.5 µg/mL came to 90%. Further, in assay [2], the mortality at 1 µg/mL was found to be 97%, the mortality at 10 µg/mL is 100%, the mortality at 100 µg/mL was 100% and the mortality at 200 µg/mL amounted to 100%. In addition, the “activity on mite eggs, times that of etoxazole” value in assay [2] (relative to etoxazole) amounted to 105 times.

As to `C=C(C)COCc1ccc(C2COC(c3c(F)cccc3F)=N2)cc1` (stereo not drawn) [Compound R2-6], in assay [1], the “acaricidal activity compared with etoxazole” value is “higher acaricidal activity than etoxazole”, the mortality at 0.001 µg/mL is 21%, the mortality at 0.01 µg/mL worked out at 45% and the mortality at 0.1 µg/mL was found to be 80%. Moreover, in assay [1], the mortality at 0.5 µg/mL amounted to 80%, the mortality at 1 µg/mL turned out to be 90%, the mortality at 10 µg/mL is 100% and the mortality at 100 µg/mL worked out at 100%. In addition, in assay [1], the mortality at 200 µg/mL is 100%. In assay [2], the mortality at 0.001 µg/mL worked out at 30%, the mortality at 0.01 µg/mL worked out at 60%, the mortality at 0.1 µg/mL turned out to be 95% and the mortality at 0.5 µg/mL was 86%. Further, in assay [2], the mortality at 1 µg/mL stood at 100%, the mortality at 10 µg/mL was 100%, the mortality at 100 µg/mL is 100% and the mortality at 200 µg/mL is 100%.

Take `C#CCCOCc1ccc(C2COC(c3c(F)cccc3F)=N2)cc1` (stereo not drawn) [Compound R2-7]: in assay [1], the mortality at 0.1 µg/mL turned out to be 40%, the mortality at 1 µg/mL was 75%, the mortality at 10 µg/mL came out at 90% and the mortality at 100 µg/mL was determined as 100%. For the same compound, the mortality at 200 µg/mL in assay [1] was found to be 100%. For the same compound, in assay [2], the mortality at 0.1 µg/mL is 70%, the mortality at 1 µg/mL was determined as 90%, the mortality at 10 µg/mL worked out at 95% and the mortality at 100 µg/mL was 100%. The mortality at 200 µg/mL in assay [2] stood at 100%.

As to `Fc1cccc(F)c1C1=NC(c2ccc(COCC#Cc3ccccc3)cc2)CO1` (stereo not drawn) [Compound R2-8], in assay [1], the mortality at 0.1 µg/mL turned out to be 50%, the mortality at 1 µg/mL was determined as 80%, the mortality at 10 µg/mL amounted to 92% and the mortality at 100 µg/mL amounted to 100%. In assay [1], the mortality at 200 µg/mL was 100%. Besides, in assay [2], the mortality at 0.1 µg/mL amounted to 60%, the mortality at 1 µg/mL was found to be 80%, the mortality at 10 µg/mL was 90% and the mortality at 100 µg/mL is 100%. Also, the mortality at 200 µg/mL in assay [2] was found to be 100%.

Take `Fc1cccc(F)c1C1=NC(c2ccc(COCC3CCCO3)cc2)CO1` (stereo not drawn) [Compound R2-9]: in assay [1], the mortality at 1 µg/mL stood at 30%, the mortality at 10 µg/mL is 75%, the mortality at 100 µg/mL is 95% and the mortality at 200 µg/mL stood at 100%. Moreover, in assay [2], the mortality at 1 µg/mL was 55%, the mortality at 10 µg/mL worked out at 85%, the mortality at 100 µg/mL stood at 100% and the mortality at 200 µg/mL came to 100%.

In the case of `Fc1cccc(F)c1C1=NC(c2ccc(COCc3ccco3)cc2)CO1` (stereo not drawn) [Compound R2-10], in assay [1], the mortality at 10 µg/mL was found to be 62%, the mortality at 100 µg/mL is 80% and the mortality at 200 µg/mL is 95%. In addition, in assay [2], the mortality at 10 µg/mL came to 75%, the mortality at 100 µg/mL turned out to be 100% and the mortality at 200 µg/mL is 100%.

On to `Fc1cccc(F)c1C1=NC(c2ccc(COCc3cccs3)cc2)CO1` (stereo not drawn) [Compound R2-11], for which, in assay [1], the mortality at 1 µg/mL turned out to be 70%, the mortality at 10 µg/mL is 80%, the mortality at 100 µg/mL worked out at 100% and the mortality at 200 µg/mL worked out at 100%. In assay [2], the mortality at 1 µg/mL was found to be 75%, the mortality at 10 µg/mL was 90%, the mortality at 100 µg/mL turned out to be 100% and the mortality at 200 µg/mL stood at 100%.

In the case of `Fc1cccc(F)c1C1=NC(c2ccc(COc3ccccn3)cc2)CO1` (stereo not drawn) [Compound R2-12], in assay [1], the mortality at 1 µg/mL was 50%, the mortality at 10 µg/mL came out at 95%, the mortality at 100 µg/mL is 100% and the mortality at 200 µg/mL was determined as 100%. In addition, in assay [2], the mortality at 1 µg/mL came to 65%, the mortality at 10 µg/mL was 90%, the mortality at 100 µg/mL stood at 100% and the mortality at 200 µg/mL stood at 100%.

Take `Fc1cccc(F)c1C1=NC(c2ccc(COc3cccnc3)cc2)CO1` (stereo not drawn) [Compound R2-13]: in assay [1], the mortality at 1 µg/mL was 60%, the mortality at 10 µg/mL is 95%, the mortality at 100 µg/mL was 100% and the mortality at 200 µg/mL was 100%. Further, in assay [2], the mortality at 0.1 µg/mL came out at 70%, the mortality at 1 µg/mL was 80%, the mortality at 10 µg/mL turned out to be 85% and the mortality at 100 µg/mL turned out to be 100%. Further, the mortality at 200 µg/mL in assay [2] was found to be 100%.

`Fc1cccc(F)c1C1=NC(c2ccc(COc3ccncc3)cc2)CO1` (stereo not drawn) [Compound R2-14]: in assay [1], the mortality at 100 µg/mL came out at 65% and the mortality at 200 µg/mL is 90%. Further, in assay [2], the mortality at 10 µg/mL amounted to 50%, the mortality at 100 µg/mL is 100% and the mortality at 200 µg/mL came to 100%.

As to `Fc1cccnc1OCc1ccc(C2COC(c3c(F)cccc3F)=N2)cc1` (stereo not drawn) [Compound R2-15], in assay [1], the mortality at 10 µg/mL is 60%, the mortality at 100 µg/mL was found to be 80% and the mortality at 200 µg/mL amounted to 100%. In assay [2], the mortality at 10 µg/mL was determined as 70%, the mortality at 100 µg/mL turned out to be 100% and the mortality at 200 µg/mL came out at 100%.

For `Fc1cccc(F)c1C1=NC(c2ccc(COc3ccncn3)cc2)CO1` (stereo not drawn) [Compound R2-16], in assay [1], the mortality at 100 µg/mL was 50% and the mortality at 200 µg/mL is 88%. In assay [2], the mortality at 10 µg/mL was 50%, the mortality at 100 µg/mL was determined as 100% and the mortality at 200 µg/mL was 100%.

Take `Fc1cccc(F)c1C1=NC(c2ccc(COc3ncccn3)cc2)CO1` (stereo not drawn) [Compound R2-17]: in assay [1], the mortality at 100 µg/mL stood at 60% and the mortality at 200 µg/mL came out at 90%. For the same compound, in assay [2], the mortality at 10 µg/mL came out at 70%, the mortality at 100 µg/mL worked out at 100% and the mortality at 200 µg/mL amounted to 100%.

`Fc1ccc(OCc2ccc(C3COC(c4c(F)cccc4F)=N3)cc2)cc1` (stereo not drawn) [Compound R2-18]: in assay [1], the mortality at 0.1 µg/mL turned out to be 70%, the mortality at 1 µg/mL is 80%, the mortality at 10 µg/mL was 88% and the mortality at 100 µg/mL was 100%. For the same compound, in assay [1], the mortality at 200 µg/mL came to 100%. Moreover, in assay [2], the mortality at 0.1 µg/mL was 85%, the mortality at 1 µg/mL came to 90%, the mortality at 10 µg/mL was found to be 96% and the mortality at 100 µg/mL came to 100%. In addition, in assay [2], the mortality at 200 µg/mL amounted to 100%.
